PubChem BioAssay (NCI)
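Step 1: Grow cells in 96-well plates. Step 2: Expose to compound for 48 hours at 5 concentrations. Step 3: Interpolate endpoints linearly; if unreached, use highest concentration. TGI: concentration producing complete growth inhibition.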

Key:
Test in all cases: growth of human tumour cells (NCI), 48 h
HOP-62 NSCLC = test system: HOP-62 NSCLC
NCI-H23 lung = test system: NCI-H23 lung
DU-145 prostate = test system: DU-145 prostate
HCT-15 colon = test system: HCT-15 colon
UO-31 renal = test system: UO-31 renal
CAKI-1 renal = test system: CAKI-1 renal
OVCAR-5 ovarian = test system: OVCAR-5 ovarian
OVCAR-3 ovarian = test system: OVCAR-3 ovarian
LOX IMVI melanoma = test system: LOX IMVI melanoma
HOP-92 NSCLC = test system: HOP-92 NSCLC

| Compound | TGI (HOP-62 NSCLC) [µM] | TGI (NCI-H23 lung) [µM] | TGI (DU-145 prostate) [µM] | TGI (HCT-15 colon) [µM] | TGI (UO-31 renal) [µM] | TGI (CAKI-1 renal) [µM] | TGI (OVCAR-5 ovarian) [µM] | TGI (OVCAR-3 ovarian) [µM] | TGI (LOX IMVI melanoma) [µM] | TGI (HOP-92 NSCLC) [µM] |
| --- | --- | --- | --- | --- | --- | --- | --- | --- | --- | --- |
| O=C(CNc1nccs1)Nn1cnc2ccc(S(=O)(=O)Nc3nccs3)cc2c1=O | > 100 | > 100 | > 100 | > 100 | > 100 | > 100 | > 100 | > 100 | > 100 | > 100 |
| COc1cc(S(=O)(=O)Nc2ccc(-c3csc(N4C(=O)C(Cl)C4c4cccc(Oc5ccccc5)c4)n3)cc2)ccc1Cl (stereo not given) | > 100 | 36.9 | 52.1 | > 100 | 43.9 | 41.8 | > 100 | > 100 | 4.89 | 37.4 |
| C=CC(C)(C)C1(CC(OC)OC)C(=O)N(C)c2ccccc21 (stereo not given) | > 25 | > 25 | > 25 | > 25 | > 25 | > 25 | > 25 | > 25 | > 25 | > 25 |
| CCCCC(=C=C(C)CO)C1CCCN1C(=O)OC(C)(C)C (stereo not given) | 39.1 | 46.8 | 34.1 | 39 | 37.7 | 61.5 | 39.9 | 31.8 | 30.4 | 25.6 |
| COc1ccc(C(=O)c2c(-c3ccccc3NC(=O)C(F)(F)F)[nH]c3ccccc23)cc1 | 22.1 | 25.7 | 17 | 19.9 | 19.4 | 28.6 | 25.5 | 8.67 | 16.1 | 27.6 |
| CC(C(=O)NCCNC(=O)CCC(=O)N(C)O)C(=O)NCCNC(=O)CCC(=O)N(C)O | > 100 | > 100 | > 100 | > 100 | > 100 | > 100 | > 100 | > 100 | > 100 | > 100 |
| C=CCOC(=O)c1c(C)n([O-])c2cc(Cl)c(Cl)cc2[n+]1=O | 57.6 | 30.3 | > 100 | 31.7 | 59.8 | 39.6 | 75.7 | 40.8 | 32.9 | 53.1 |
| CC(C)(C)c1cc(C(=O)C2Cc3ccccc3C(=O)O2)cc(C(C)(C)C)c1O (stereo not given) | 30.8 | 35.8 | 28.3 | 37 | 23.2 | 52.5 | 31.8 | 25.5 | 26.5 | 45.3 |
| CCNC(=O)NNc1ncnc2c1c(-c1ccc(Cl)cc1)cn2-c1ccc(C)cc1 | 35.2 | 44.8 | 44.9 | 47.8 | 28.3 | 51.1 | 33.5 | 33.6 | 36.4 | 34 |
| CCCCCCCCCC(O)CC(=O)c1c(O)cccc1O (stereo not given) | 33.1 | 43.7 | > 100 | 39.4 | 38.6 | 44 | 35.7 | 41.9 | 46 | 64.8 |
| COC(=O)[C@H]1[C@@H](O)[C@@]2(O)c3c(OC)cc(OC)cc3O[C@@]2(c2ccc3c(c2)OCO3)[C@@H]1c1ccccc1 | 0.68 | 0.823 | 4.51 | 0.107 | 0.0223 | 0.264 | 0.206 | 2.8 | 0.014 | > 50 |
| COc1cc(NS(C)(=O)=O)ccc1NCc1cnc2ccc3[nH]cccc3c12 | 55.6 | 55 | > 70.3 | 58.4 | 59 | > 72.7 | 50.4 | 53.2 | 63.4 | 93.9 |
| COc1ccc(OC)c(NC2=NCCO2)c1 | > 100 | > 100 | > 100 | > 100 | > 100 | 28.8 | > 100 | > 100 | > 100 | 77.4 |
| COC1=CC(=O)c2c(cc(COP(N)(=O)N(CCCl)CCCl)n2C)C1=O (stereo not given) | 7.88 | 3.41 | 5.71 | 3.54 | 2.65 | < 0.0478 | 4.21 | 2.37 | 1.73 | 6.66 |
| CNC(=O)c1cc2nc3ccccc3c(=O)n2c2ccccc12 | > 10 | > 10 | > 10 | > 10 | > 10 | > 10 | > 10 | > 10 | > 10 | > 10 |
| Oc1cc(O)c2c(c1)O[C@H](c1cc(O)c(O)c(O)c1)[C@@H](O)C2 | 34 | 58.2 | > 100 | > 100 | 35.9 | > 100 | 34.8 | 46.6 | 37.9 | > 10 |
| C=C1C(=O)[C@]23C[C@H]1C[C@@H](O)[C@H]2[C@]1(COC3=O)[C@@H](OC(C)=O)CC[C@@](C)(COC(C)=O)[C@H]1C=O | > 50 | > 50 | > 50 | > 50 | > 50 | 18.8 | > 50 | > 50 | > 50 | 22.3 |
| NC(=S)Nc1ccc2c(c1)oc1ccccc12 | > 100 | > 100 | > 100 | > 100 | > 100 | > 100 | > 100 | > 100 | > 100 | > 100 |
| Cc1ccc(S(=O)(=O)/N=C2/N(C)CCCS2(=O)=O)cc1 | > 100 | > 100 | > 100 | > 100 | > 100 | > 100 | > 100 | > 100 | > 100 | > 100 |
| Cc1nc(N)sc1C(=O)Nc1ncn[nH]1 | > 100 | > 100 | > 100 | > 100 | > 100 | > 100 | > 100 | > 100 | > 100 | > 100 |
| COC(=O)CCCC1(CCCC(=O)OC)CCCCCCCCC(CCCC(=O)OC)(CCCC(=O)OC)C(=O)C1=O | > 100 | 47.9 | > 100 | > 100 | 0.3 | 24.4 | > 100 | 79.7 | 48.5 | 39 |
| CC(C)NCC(O)c1ccc(O)c2ncccc12 (stereo not given) | > 100 | 78.7 | > 100 | > 100 | > 100 | > 100 | > 100 | 55 | > 100 | > 100 |
| Nc1nc2c(c(-c3ccccc3Cl)n1)COC/C2=C\c1ccccc1Cl | 32.2 | 34.8 | 32.6 | 39.9 | 32 | 31.9 | 31.7 | 31.2 | 36.9 | 29 |
| N/C(=N\S(=O)(=O)c1ccc(-c2ccccn2)s1)Nc1ccc(Cl)cc1 | 39.2 | 33.2 | 34.3 | 38 | 34.9 | 24.9 | 40.2 | 67.6 | 33.5 | 28.9 |
| O=S(c1ccccc1)C1CC2CC3(CCC21O)OCCO3 (stereo not given) | > 100 | > 100 | > 100 | > 100 | > 100 | > 100 | > 100 | > 100 | > 100 | > 100 |
| Cc1ccc(S(=O)(=O)NC(=O)NCCc2ccc(O)c(O)c2)cc1 | > 100 | > 100 | > 100 | > 100 | > 100 | > 100 | > 100 | > 100 | > 100 | > 100 |
| O=C(/C=C/c1ccc(OCc2ccccc2)cc1)NCc1ccc(C(=O)NCc2ccccc2)cc1 | > 100 | > 100 | > 100 | > 100 | > 100 | > 100 | > 100 | > 100 | > 100 | > 100 |
| CC(=O)NNc1nc(C)c(C(/C=C/c2ccc([N+](=O)[O-])cc2)=N/NC(N)=O)s1 | > 100 | > 100 | > 100 | > 100 | > 100 | > 100 | > 100 | > 100 | > 100 | > 100 |
| Nc1ncnc2c1ncn2C1OC(CO)C(O)C1NS(=O)(=O)c1ccccc1 (stereo not given) | > 100 | > 100 | > 100 | > 100 | > 100 | > 100 | > 100 | > 100 | > 100 | > 100 |
